Experimental data as given in patent publication US20230286995A1, “METABOLICALLY STABLE PYRIMIDINYL DIHYDROQUINOXALINONES AS TUBULIN POLYMERIZATION INHIBITORS” (UNIVERSITY OF TENNESSEE RESEARCH FOUNDATION, priority 2022, published 2023).
Where a name gives a salt, the structure may show the parent alone. Read-outs that look alike come from different tables or passages of the source.

Assays:
A-253 and Detroit 562 = assay: Cytotoxicity in head and neck cancer cell lines; assay type: cell-based; conditions: Homo sapiens; FIG. 39A; read-out: IC50 values, range over A-253 and Detroit 562
Method: A panel of dihydroquinoxalinones were tested in two head and neck cancer cell lines, A-253 and Detroit 562. A-253 cells are a human salivary epidermoid carcinoma cell line, whereas Detroit 562 is a head and neck squamous cell carcinoma (HNSCC). Oral cancer is the most common type of head and neck cancer and more than 90% of oral cancers are either oral or oropharyngeal squamous cell carcinoma (SCC). A major clinical dilemma is chemotherapy efficiency targeted for head and neck squamous cell carcinoma (HNSCC). The inability to successfully complete cancer treatment utilizing a standard surgical approach due to an advanced stage of HNSCC and/or resistance of SCC cells to conventional chemotherapy and/or radiotherapy leads to a continuous search for new compounds with cytostatic activity and minor side effects.
FIGS. 39B and 39C illustrate the graphical representation of the data. […] For example, at treatment levels as low of 0.5 nM, 12k was able to prevent head and neck cancer cell proliferation almost completely, whereas it required 5 nM of 17ya to achieve similar antiproliferation.

[1] = system: melanoma, breast, pancreatic and prostate cancer cell lines; assay: Cytotoxicity of Example 8 compounds; assay type: cell-based, human
Description: (§1) Cytotoxicity Assay. […] Each experiment consisted of four replicates.

A375 = assay: Cytotoxicity assay (MTS, 72 h); conditions: Homo sapiens;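 note: compounds tested from 0.1 nM up to 3 µM in four replicate wells, with absorbance read at 490 nm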
MDA-MB-231 = assay: Cytotoxicity assay (MTS, 72 h); assay type: cell-based; conditions: Homo sapiens
[2] = system: human melanoma and breast cancer cell lines; assay: Cytotoxicity, all tested cell lines of Table 1; assay type: cell-based; conditions: melanoma and breast lines of Table 1; for IC50: Homo sapiens, read-out: IC50 values, range over all tested cell lines
logP = assay type: physicochemical; conditions: Table 1; method not described
MDA-MB-453 = assay: Cytotoxicity assay (MTS, 72 h); assay type: cell-based, human; conditions: Homo sapiens, MDA-MB-453
MDA-MB-468 = assay: Cytotoxicity assay (MTS, 72 h); assay type: cell-based, human; conditions: Table 1, read-out: IC50 (nM) Breast MDA-MB-468
M14 = assay: Cytotoxicity assay (MTS, 72 h); conditions: Homo sapiens
RPMI-7951 = assay: Cytotoxicity assay (MTS, 72 h); assay type: cell-based; conditions: Homo sapiens, Table 1, read-out: IC50 (nM) Melanoma RPMI-7951
A549/TxR = assay: cells; conditions: Homo sapiens, read-out: IC50 ± SEM (nM) A549/TxR
A375/TxR = assay: Cytotoxicity assay (MTS, 72 h); assay type: cell-based; conditions: Homo sapiens, read-out: IC50 ± SEM (nM) A375/TxR
MDA-MB-231/VxR = assay: Cytotoxicity assay (MTS, 72 h); assay type: cell-based; conditions: Homo sapiens, MDA-MB-231, read-out: IC50 ± SEM (nM) MDA-MB-231/VXR
[3] = target: T1, tubulin protein from bovine brain (Bos taurus, UniProt P81947+Q6B856); assay: Tubulin polymerization assay (FIG. 5A); assay type: biochemical; conditions: 10 μM, cell-free
T1 construct: tubulin protein from bovine brain origin; purchased Cytoskeleton, Denver, Colo; host or cells: bovine brain
T1 sequence (P81947 whole entry): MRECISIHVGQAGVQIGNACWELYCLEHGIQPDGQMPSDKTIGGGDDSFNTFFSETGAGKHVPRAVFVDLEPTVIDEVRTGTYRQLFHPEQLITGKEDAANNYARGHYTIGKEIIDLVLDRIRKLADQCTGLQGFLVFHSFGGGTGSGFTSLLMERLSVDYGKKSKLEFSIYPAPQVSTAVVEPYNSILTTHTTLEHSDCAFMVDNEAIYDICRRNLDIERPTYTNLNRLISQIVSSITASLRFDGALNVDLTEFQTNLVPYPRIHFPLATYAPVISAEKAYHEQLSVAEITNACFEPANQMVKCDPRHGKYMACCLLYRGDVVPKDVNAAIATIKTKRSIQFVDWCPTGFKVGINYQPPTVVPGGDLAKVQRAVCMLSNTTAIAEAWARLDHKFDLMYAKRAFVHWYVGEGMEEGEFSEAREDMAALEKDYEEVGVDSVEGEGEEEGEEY
T1 sequence (Q6B856 whole entry): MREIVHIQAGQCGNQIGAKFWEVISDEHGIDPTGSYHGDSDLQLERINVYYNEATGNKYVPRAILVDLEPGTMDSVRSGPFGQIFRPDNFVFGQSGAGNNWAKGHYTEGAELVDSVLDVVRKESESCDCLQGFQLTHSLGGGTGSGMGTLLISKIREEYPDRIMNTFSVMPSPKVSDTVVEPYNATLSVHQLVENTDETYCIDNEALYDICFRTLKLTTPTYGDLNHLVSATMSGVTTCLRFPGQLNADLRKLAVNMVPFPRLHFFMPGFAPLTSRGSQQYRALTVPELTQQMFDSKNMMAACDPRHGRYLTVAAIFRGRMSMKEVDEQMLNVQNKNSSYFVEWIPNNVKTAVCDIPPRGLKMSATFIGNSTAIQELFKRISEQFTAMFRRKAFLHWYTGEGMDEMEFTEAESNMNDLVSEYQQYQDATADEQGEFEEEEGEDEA
Method: Tubulin polymerization reaction was initiated by adding 100 μL of tubulin protein from bovine brain origin (3 mg/ml, Cytoskeleton, Denver, Colo.) into 10 μM of test compounds in general tubulin buffer (80 mM PIPES, 2.0 mM MgCl2, 0.5 mM EGTA, and 1 mM GTP) according to the manufacturer protocol. The reaction kinetics were recorded in every thirty seconds for 1 h at 37° C. and a microplate reader equipped with absorbance settings at 340 nm wavelength was used for this purpose. The experiment was performed in duplicates.

[4] = system: taxane-resistant melanoma, breast, and lung cancer cells; assay: Cytotoxicity, regular and taxane-resistant lines of Table 2; assay type: cell-based; conditions: Homo sapiens; taxane-resistant melanoma, breast, and lung cancer cells; read-out: IC50 values, range against taxane-resistant cells
DU-145/VxR = assay: Cytotoxicity assay (MTS, 72 h); assay type: cell-based; conditions: Homo sapiens, DU-145, read-out: IC50 ± SEM (nM) DU-145/VXR
Mia PaCa-2 = assay: Cytotoxicity assay (MTS, 72 h); assay type: cell-based; conditions: Homo sapiens
PANC-1 = assay: Cytotoxicity assay (MTS, 72 h); assay type: cell-based; conditions: Homo sapiens
Method: Mia PaCa-2 and PANC-1 cells were seeded in 96-well plates at 4000 and 5000 cells per well, respectively.
as §1

M14/LCC6MDR1 = assay: Cytotoxicity assay (MTS, 72 h); assay type: cell-based; conditions: Homo sapiens, read-out: IC50 ± SEM (nM) M14/LCC6MDR1
in vitro [5] = conditions: human, liver microsomes
PC3 = assay: Cytotoxicity assay (MTS, 72 h); assay type: cell-based; conditions: Homo sapiens, PC-3; Table 6; read-out: IC50 (nM) Prostate cancer PC3
Description: as §1

in vitro [6] = conditions: mouse, liver microsomes
PC3/TxR = assay: Cytotoxicity assay (MTS, 72 h); assay type: cell-based; conditions: Homo sapiens, Table 6, paclitaxel-resistant, read-out: IC50 (nM) Prostate cancer PC3/TxR
Method: Biology. Cell culture and Reagents. […] MIA Paca-2 pancreatic cancer cells were cultured in media also supplemented with 2.5% horse serum. PANC-1 and PC-3 were cultured in RPMI 1640 medium (Gibco, Carlsbad, Calif.) supplemented with 10% FBS and 1% antibiotic/antimycotic mixture. […] For biological experiments, pyrimidine dihydroquinoxalinone derivatives were dissolved in DMSO to create 20 mM stock solutions and stored at −20° C. until use.
as §1

[7] = A-375, read-out: IC50 (nM) Melanoma A375, Table 1
[8] = MDA-MB-231, read-out: IC50 (nM) Breast MDA-MB-231, Table 1
[9] = Table 1, read-out: IC50 (nM) Breast MDA-MB-453
[10] = M14, read-out: IC50 (nM) Melanoma M14
[11] = MDA-MB-231, read-out: IC50 (nM) Breast Cancer MDA-MB-231, Table 6

With `CCNc1nc2c(c(N3CC(=O)Nc4cc(OC)ccc43)n1)CCC2` [5v HCl, 4-(2-(ethylamino)-6,7-dihydro-5H-cyclopenta[d]pyrimidin-4-yl)-7-methoxy-3,4-dihydroquinoxalin-2(1H)-one] the IC50 (A-253 and Detroit 562) was 0.52 to 3.2 nM.

In the case of `COc1ccc(Nc2nc(OC)nc3c2CCC3)c(N)c1` [Compound 20, 4-methoxy-N1-(2-methoxy-6,7-dihydro-5H-cyclopenta[d]pyrimidin-4-yl)benzene-1,2-diamine], the “cytotoxic potency” value [1] is reported as “little to no cytotoxic activity”.

With `COc1ccc2c(c1)NC(=O)CN2c1nc(Cl)nc(C)c1C` [Compound 5q, 4-(2-chloro-5,6-dimethylpyrimidin-4-yl)-7-methoxy-3,4-dihydroquinoxalin-2(1H)-one] the IC50 (A375; [7]) was greater than 1000 nM, the IC50 (MDA-MB-231; [8]) was greater than 1000 nM and the “cytotoxic activity” value [2] was “inactive”. For the same compound, the logP (logP) was 2.76, the IC50 (MDA-MB-453; [9]) was greater than 1000 nM and the IC50 (MDA-MB-468; Homo sapiens, MDA-MB-468) was greater than 1000 nM. It also gave an IC50 (M14; [10]) greater than 1000 nM and an IC50 (RPMI-7951) greater than 1000 nM.

Compound `COc1ccc2c(c1)NC(=O)CN2c1cc(C)nc2cccnc12` [Compound 5s, 7-methoxy-4-(2-methyl-1,5-naphthyridin-4-yl)-3,4-dihydroquinoxalin-2(1H)-one] has an IC50 (A375; [7]) of 15 ± 2.1 nM, an IC50 (MDA-MB-231; [8]) of 23.9 ± 4.1 nM and an IC50 [2] of 13 to 24 nM. It also gave a logP (logP) of 1.96, an IC50 (MDA-MB-453; [9]) of 12.9 ± 2.3 nM and an IC50 (MDA-MB-468; Homo sapiens, MDA-MB-468) of 18.5 ± 4.1 nM. It also gave an IC50 (M14; [10]) of 18.3 ± 2.9 nM and an IC50 (RPMI-7951) of 14.4 ± 2.4 nM.

With `CCNc1nc(N2CC(=O)Nc3cc(OC)ccc32)c2ncccc2n1` [Compound 5t, 4-(2-(ethylamino)pyrido[3,2-d]pyrimidin-4-yl)-7-methoxy-3,4-dihydroquinoxalin-2(1H)-one] the IC50 (A549/TxR) was 5.4 ± 1.7 nM, the IC50 (A375/TxR; Table 2, paclitaxel-resistant) was 1.3 nM and the IC50 (MDA-MB-231/VxR) was 2.9 ± 0.4 nM. The IC50 [2] was 0.4 to 26 nM, the logP (logP) was 1.72 and the “effect on microtubule polymerization” value [3] was “significantly inhibited microtubule polymerization”. It also gave an IC50 [4] of 0.3 to 5 nM, an IC50 (DU-145/VxR) of 1.8 ± 0.4 nM and an IC50 (RPMI-7951) of 0.8 ± 0.1 nM.

For `Cc1nc2c(c(N3CC(=O)Nc4cc(OCc5ccccc5)ccc43)n1)CCC2` [Compound 12p, 7-(benzyloxy)-4-(2-methyl-6,7-dihydro-5H-cyclopenta[d]pyrimidin-4-yl)-3,4-dihydroquinoxalin-2(1H)-one], the IC50 (MDA-MB-231; [11]) was 423 ± 110 nM, the IC50 (Mia PaCa-2; Table 6, cells printed in μM, read-out: IC50 Pancreatic cancer Mia PaCa-2) was greater than 1.25 µM and the “cytotoxic potency” value [1] was “least in potency”. It also gave an IC50 (PANC-1; Table 6, cells printed in μM, read-out: IC50 Pancreatic cancer PANC-1) greater than 1.2 µM.

`CCNc1nc(N2CC(=O)Nc3cc(OC)ccc32)c2cccnc2n1` [Compound 5u, 4-(2-(ethylamino)pyrido[2,3-d]pyrimidin-4-yl)-7-methoxy-3,4-dihydroquinoxalin-2(1H)-one] showed an IC50 (A375; [7]) of 5.8 ± 1 nM, an IC50 (MDA-MB-231; [8]) of 6.7 ± 1.2 nM and an IC50 [2] of 0.4 to 26 nM. The logP (logP) was 2.51, the IC50 (MDA-MB-453; [9]) was 4.5 ± 0.9 nM and the IC50 (MDA-MB-468) was 10.5 ± 1.6 nM. It also gave an IC50 (M14; [10]) of 5.4 ± 0.7 nM and an IC50 (RPMI-7951) of 4.8 ± 0.8 nM.

In the case of `COc1cc2c(c(OC)c1OC)-c1ccc(OC)c(=O)cc1[C@@H](NC(C)=O)CC2` [Colchicine, reference compound], the IC50 (M14/LCC6MDR1) is reported as greater than 1000 nM.

`COc1ccc(N(C)c2nc(C)nc3ccccc23)cc1` [Verubulin, N-(4-methoxyphenyl)-N,2-dimethylquinazolin-4-amine, reference compound] gave an IC50 (A375; A-375, read-out: IC50 ± SEM (nM) A375, Table 2) of 0.7 ± 0.1 nM, an IC50 (A375/TxR) of 0.7 ± 0.1 nM and an IC50 (MDA-MB-231; MDA-MB-231, read-out: IC50 ± SEM (nM) MDA-MB-231, Table 2) of 1.9 ± 0.4 nM. For the same compound, the IC50 (MDA-MB-231/VxR) was 2 ± 0.4 nM and the IC50 (M14; M14, read-out: IC50 ± SEM (nM) M14) was 1 ± 0.1 nM.

For `COc1ccc2c(c1)NC(=O)CN2c1nc(NC2CC2)nc2c1CCC2` [Compound 12j, 4-(2-(cyclopropylamino)-6,7-dihydro-5H-cyclopenta[d]pyrimidin-4-yl)-7-methoxy-3,4-dihydroquinoxalin-2(1H)-one], the IC50 (A375; A-375, read-out: IC50 (nM) Melanoma Cancer A375, Table 6) was roughly 1.4 nM, the IC50 (MDA-MB-231; [11]) was 2.2 ± 0.4 nM and the IC50 (Mia PaCa-2; Table 6, read-out: IC50 (nM) Pancreatic cancer Mia PaCa-2) was 0.0039 ± 0.0006 µM. It also gave an IC50 (MDA-MB-453; Table 6, read-out: IC50 (nM) Breast Cancer MDA-MB-453) of 1.1 ± 0.3 nM, a half-life at 1 μg/mL (in vitro [5]) of 80.3 min and a microsomal CLint at 1 μg/mL (in vitro [5]) of 8.68 µL/min/mg. It also gave an IC50 (PC3) of 0.6 nM, a half-life at 1 μg/mL (in vitro [6]) of 13.6 min and a microsomal CLint at 1 μg/mL (in vitro [6]) of 51 µL/min/mg. It also gave an IC50 (PC3/TxR) of 0.2 nM, an IC50 (PANC-1; Table 6, read-out: IC50 (nM) Pancreatic cancer PANC-1) of 0.0034 ± 0.0006 µM and an IC50 (M14; M14, read-out: IC50 (nM) Melanoma Cancer M14) of 1.2 ± 0.3 nM.

With `CNC(=O)C(=O)Nc1cc(OC)ccc1Nc1nc(SC)nc2c1CCC2` [Compound 21, N1-(5-methoxy-2-((2-(methylthio)-6,7-dihydro-5H-cyclopenta[d]pyrimidin-4-yl)amino)phenyl)-N2-methyloxalamide] the “cytotoxic potency” value [1] was “little to no cytotoxic activity”.
